Source: patent US9115380B2, “Kits and methods for generating 5′ capped RNA” (priority 2006, dated 2015)
Where “and” joins values, the source holds several entries; their conditions need not be identical. Equal entries are not always repeated. Where two headings read alike, the source gives them in different places.

Tests used:
[1] = target: vaccinia mRNA (nucleoside-2′-O—) methyltransferase (Vaccinia virus, UniProt P07617); format: biochemical
[2] = test system: tobacco acid pyrophosphatase (TAP); format: biochemical
[3] = test system: rabbit reticulocyte lysate; format: biochemical
wheat germ lysate = format: biochemical
vaccinia capping enzyme = vaccinia capping enzyme (Vaccinia virus, UniProt P04298); format: biochemical
BDCM cells = format: cell-based; conditions: for relative translation efficiency: poly(A)-tailed Renilla luciferase RNA
[4] = target: RNA guanyltransferase activity of the vaccinia capping enzyme system (Vaccinia virus, UniProt P04298); conditions: permeabilized vaccinia virions; cited from earlier work
[5] = target: vaccinia capping enzyme (guanine 7-methyltransferase activity) (Vaccinia virus, UniProt P04298); format: biochemical
HeLa cells = format: cell-based; conditions: GTP-capped poly(A)-tailed Renilla luciferase RNA
[6] = rabbit reticulocyte lysate, poly(A)-tailed Renilla luciferase RNA, cap 0 structure, GTP-capped cap 0 RNA = 100%
[7] = rabbit reticulocyte lysate, poly(A)-tailed Renilla luciferase RNA, cap I structure
[8] = rabbit reticulocyte lysate, poly(A)-tailed firefly luciferase RNA, cap I structure
[9] = wheat germ lysate, poly(A)-tailed Renilla luciferase RNA, cap 0 structure, GTP-capped cap 0 RNA = 100%
[10] = wheat germ lysate, poly(A)-tailed Renilla luciferase RNA, cap I structure
[11] = capped RNA prepared per Method 6
[12] = cap 0 structure, GTP-capped cap 0 RNA = 100%
[13] = cap I structure, GTP-capped RNA = 100%

Compound	methylation of the 2′-hydroxyl of the 5′-penultimate nucleotide by mRNA (nucleoside-2′-O—) methyltransferase [1]	average relative translation efficiency [3, 6] [%]	average relative translation efficiency [3, 7] [%]	average relative translation efficiency [3, 8] [%]	relative translation efficiency (wheat germ lysate; [9]) [%]	relative translation efficiency (wheat germ lysate; [10]) [%]	conversion of 51-base primary RNA transcript to 52-base capped RNA (in words) (vaccinia capping enzyme)	removal of the cap nucleotide by tobacco acid pyrophosphatase (51-base band on PAGE) [2, 11]	methylation of the N^7 position of the cap nucleotide (radioactive methyl group in 52-base band) [5]	further results
Nc1nc2c(ncn2[C@@H]2O[C@H](COP(=O)(O)OP(=O)(O)OP(=O)(O)O)[C@@H](O)[C@H]2F)c(=O)[nH]1 [2′-F-dGTP, 2′-fluoro-2′-deoxyguanosine-5′-triphosphate]	52-base radioactive band was observed	55	107	133	53	61				removal of the cap nucleotide by tobacco acid pyrophosphatase (51-base band on PAGE) ([2]; capped RNA prepared per Method 6 except in the absence of S-adenosyl-L-methionine): 51-base band was observed
CO[C@@H]1[C@H](O)[C@@H](COP(=O)(O)OP(=O)(O)OP(=O)(O)O)O[C@H]1n1cnc2c(=O)[nH]c(N)nc21 [2′-OMe-GTP, 2′-O-methylguanosine-5′-triphosphate]	52-base radioactive band was observed									removal of the cap nucleotide by tobacco acid pyrophosphatase (51-base band on PAGE) [2]: 51-base band was observed; average relative translation efficiency [3]: 132% and 97% and 170%; relative translation efficiency (wheat germ lysate): 36% and 47%
Nc1nc2c(ncn2[C@@H]2O[C@H](COP(=O)(O)OP(=O)(O)OP(=O)(O)O)[C@@H](O)[C@H]2N)c(=O)[nH]1 [2′-amino-dGTP, 2′-amino-2′-deoxyguanosine-5′-triphosphate]	52-base radioactive band was observed	148	144	100	90	110	quantitatively converted	51-base band was observed		relative translation efficiency (BDCM cells; [12]): 150%; relative translation efficiency (BDCM cells; [13]): 177%
[N-]=[N+]=N[C@@H]1[C@H](O)[C@@H](COP(=O)(O)OP(=O)(O)OP(=O)(O)O)O[C@H]1n1cnc2c(=O)[nH]c(N)nc21 [2′-azido-dGTP, 2′-azido-2′-deoxyguanosine-5′-triphosphate]	52-base radioactive band was observed	99	79	107	41	42				
Nc1nc2c(ncn2[C@H]2C[C@H](O)[C@@H](COP(=O)(O)OP(=O)(O)OP(=O)(O)O)O2)c(=O)[nH]1 [2′-dGTP, 2′-deoxyguanosine-5′-triphosphate]	52-base radioactive band was observed	118	84	128	54	54	quantitatively converted	51-base band was observed		activity relative to GTP in [^32P]-PPi exchange assay [4]: approximately 6%
CO[C@H]1[C@@H](O)[C@H](n2cnc3c(=O)[nH]c(N)nc32)O[C@@H]1COP(=O)(O)OP(=O)(O)OP(=O)(O)O [3′-OMe-GTP, 3′-O-methylguanosine-5′-triphosphate]	52-base radioactive band was observed	82	84	137	39	43	quantitatively converted	51-base band was observed		
Nc1nc2c(ncn2[C@@H]2O[C@H](COP(=O)(O)OP(=O)(O)OP(=O)(O)O)[C@@H](O)[C@H]2O)c(=O)[nH]1 [GTP, reference compound]							quantitatively converted		contained the radioactive methyl group	conversion of 51-base primary RNA transcript into 52-base capped RNA (in words) [5]: quantitatively converted; RLUs with cap I structure relative to cap 0 structure (HeLa cells): about 2.2 times higher; RLUs with cap I structure relative to cap 0 structure (BDCM cells; GTP-capped poly(A)-tailed Renilla luciferase RNA): about 1.3 times higher
Cn1c(N)nc2c(ncn2[C@@H]2O[C@H](COP(=O)(O)OP(=O)(O)OP(=O)(O)O)[C@@H](O)[C@H]2O)c1=O [N^1-methyl-GTP, N^1-methylguanosine-5′-triphosphate]							quantitatively converted		did not contain any radioactivity	substrate for the capping enzyme system (51-base primary RNA transcript converted into 52-base capped RNA) (vaccinia capping enzyme): substrates for the capping enzyme system; relative translation efficiency (wheat germ lysate): 31%
COc1nc(N)nc2c1ncn2[C@@H]1O[C@H](COP(=O)(O)OP(=O)(O)OP(=O)(O)O)[C@@H](O)[C@H]1O [O^6-methyl-GTP, O^6-methylguanosine-5′-triphosphate]		167	122	97	80	59			catalyzed formation of N^7-methylated capped RNA	51-base primary RNA transcript converted into 52-base capped RNA (vaccinia capping enzyme): approximately 70%; substrate for the capping enzyme system (51-base primary RNA transcript converted into 52-base capped RNA) (vaccinia capping enzyme): substrates for the capping enzyme system; conversion of 51-base primary RNA transcript into 52-base capped RNA (in words) [5]: quantitatively converted; relative translation efficiency (BDCM cells; [12]): 115%; relative translation efficiency (BDCM cells; [13]): 117%
